Assay results as given in ChEMBL document CHEMBL6153089, “Design, Synthesis, and Biological Evaluation of Thieno[3,2-d]pyrimidine Derivatives as the First Bifunctional PI3Kδ Isoform Selective/Bromodomain and Extra-Terminal Inhibitors” (J Med Chem, 2025).
Calls of active or inactive are those of the source. No cut-off for these calls is given here.

Columns and labels:
[1] = target: PI3-kinase p110-delta/p85-alpha (Homo sapiens) (UniProt P27986+O00329); experiment: Inhibition of p110delta/p85alpha (unknown origin) at 100 nM incubated for 2 hrs in presence of ATP by ADP-kinaseGlo reagent based assay relative to control; format: protein-complex assay
[2] = target: T1, Phosphatidylinositol 4,5-bisphosphate 3-kinase catalytic subunit gamma isoform (Homo sapiens, UniProt P48736); experiment: Inhibition of PI3Kgamma (unknown origin) incubated for 2 hrs in presence of ATP by ADP-kinaseGlo reagent based assay
Target sequence in this assay (P48736 whole entry, canonical isoform): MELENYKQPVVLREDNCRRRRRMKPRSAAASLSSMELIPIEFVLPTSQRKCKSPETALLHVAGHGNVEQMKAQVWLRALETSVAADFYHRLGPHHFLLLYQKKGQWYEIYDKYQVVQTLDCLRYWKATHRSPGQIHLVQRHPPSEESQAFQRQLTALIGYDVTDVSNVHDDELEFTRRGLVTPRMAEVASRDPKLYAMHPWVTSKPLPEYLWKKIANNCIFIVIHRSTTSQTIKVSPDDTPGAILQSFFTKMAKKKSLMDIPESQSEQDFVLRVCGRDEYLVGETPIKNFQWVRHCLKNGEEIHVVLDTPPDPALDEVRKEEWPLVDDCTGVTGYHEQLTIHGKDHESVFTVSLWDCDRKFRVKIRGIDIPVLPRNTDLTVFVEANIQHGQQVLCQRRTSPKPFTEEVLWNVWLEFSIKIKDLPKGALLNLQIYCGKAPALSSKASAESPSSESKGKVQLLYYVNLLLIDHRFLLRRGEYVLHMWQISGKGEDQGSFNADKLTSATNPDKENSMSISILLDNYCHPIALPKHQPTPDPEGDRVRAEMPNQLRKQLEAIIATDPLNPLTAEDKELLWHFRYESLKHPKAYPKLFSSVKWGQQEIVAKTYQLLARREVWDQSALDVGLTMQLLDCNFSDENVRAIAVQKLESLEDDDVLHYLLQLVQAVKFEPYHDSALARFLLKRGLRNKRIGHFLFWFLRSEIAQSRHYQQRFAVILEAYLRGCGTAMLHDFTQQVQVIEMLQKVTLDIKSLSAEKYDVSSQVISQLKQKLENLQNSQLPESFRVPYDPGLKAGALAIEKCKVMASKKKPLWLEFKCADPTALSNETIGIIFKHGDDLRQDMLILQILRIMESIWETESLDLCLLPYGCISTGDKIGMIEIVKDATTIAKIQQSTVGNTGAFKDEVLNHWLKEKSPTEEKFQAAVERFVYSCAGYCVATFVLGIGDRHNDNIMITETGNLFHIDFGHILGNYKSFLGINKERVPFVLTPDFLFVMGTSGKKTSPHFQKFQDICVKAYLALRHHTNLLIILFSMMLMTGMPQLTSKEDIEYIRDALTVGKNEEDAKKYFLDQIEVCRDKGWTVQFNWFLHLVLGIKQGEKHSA

[3] = target: Bromodomain-containing protein 3 (Homo sapiens, UniProt Q15059); experiment: Inhibition of His-tagged BRD3-BD1 (unknown origin) incubated for 30 mins in presence of ATP by Alphascreen assay
[4] = target: Bromodomain-containing protein 4 (Homo sapiens, UniProt O60885); experiment: Inhibition of His-tagged BRD4-BD2 (unknown origin) incubated for 30 mins in presence of ATP by Alphascreen assay
[5] = target: Bromodomain testis-specific protein (Homo sapiens, UniProt Q58F21); experiment: Inhibition of His-tagged BRDT-BD1 (unknown origin) incubated for 30 mins in presence of ATP by Alphascreen assay
[6] = target: PI3-kinase p110-alpha/p85-alpha (Homo sapiens) (UniProt P27986+P42336); experiment: Inhibition of human p110alpha/p85alpha at 1 uM relative to control; format: protein-complex assay
[7] = tested on: PI3-kinase p110-alpha/p85-alpha (Homo sapiens), P27986+P42336 [E542K]; experiment: Inhibition of human p110alpha-E545K mutant/p85alpha at 1 uM relative to control; format: protein-complex assay
Homo sapiens = species on record: Homo sapiens; experiment: Inhibition of human p110alpha-H1047R mutant/p85alpha at 1 uM relative to control
[8] = target: PI3K p110 beta/p85 alpha (Homo sapiens) (UniProt P27986+P42338); experiment: Inhibition of human p110beta/p85alpha at 1 uM relative to control; format: protein-complex assay
[9] = target: T1, Phosphatidylinositol 4,5-bisphosphate 3-kinase catalytic subunit gamma isoform; experiment: Inhibition of human PI3Kgamma at 1 uM relative to control
Target sequence in this assay (P48736 whole entry, looked up, canonical isoform): as the sequence (P48736 whole entry, canonical isoform) above

SU-DHL-6 [10] = experiment: Induction of apoptosis in human SU-DHL-6 cells assessed as early apoptotic cells at 0.25 uM incubated for 24 hrs by Annexin V-FITC/PI staining based flow cytometric analysis (reference value: 32.1 %); format: functional
HUVEC = experiment: Cytotoxicity against HUVEC cells assessed as effect on cell proliferation at 5 to 20 uM incubated for 72 hrs by Celltiter-luminescence analysis; format: toxicity, cell-based; details: human, dose 5-20 µM
SUD4 [11] = experiment: Cell cycle arrest in human SU-DHL-4 cells assessed as accumulation of cells at S phase incubated for 12 hrs by PI staining based flow cytometric analysis; format: functional; details: dose 0.25-1 µM
SU-DHL-6 [12] = experiment: Cell cycle arrest in human SU-DHL-6 cells assessed as accumulation of cells at S phase incubated for 12 hrs by PI staining based flow cytometric analysis; format: functional; details: dose 0.25-1 µM
SUD4 [13] = experiment: Induction of apoptosis in human SU-DHL-4 cells assessed as late apoptotic cells at 1 uM incubated for 24 hrs by Annexin V-FITC/PI staining based flow cytometric analysis (reference value: 6.74 %); format: functional
SUD4 [14] = experiment: Induction of apoptosis in human SU-DHL-4 cells assessed as viable cells at 0.25 uM incubated for 24 hrs by Annexin V-FITC/PI staining based flow cytometric analysis (reference value: 65.2 %); format: functional; details: read-out: Activity
SUD4 [15] = experiment: Induction of apoptosis in human SU-DHL-4 cells assessed as necrotic cells at 0.25 uM incubated for 24 hrs by Annexin V-FITC/PI staining based flow cytometric analysis (reference value: 0.642 %); format: functional
SUD4 [16] = experiment: Induction of apoptosis in human SU-DHL-4 cells assessed as early apoptotic cells at 0.5 uM incubated for 24 hrs by Annexin V-FITC/PI staining based flow cytometric analysis (reference value: 25.3 %); format: functional
SUD4 [17] = experiment: Induction of apoptosis in human SU-DHL-4 cells assessed as late apoptotic cells at 0.5 uM incubated for 24 hrs by Annexin V-FITC/PI staining based flow cytometric analysis (reference value: 6.74 %); format: functional
SUD4 [18] = experiment: Induction of apoptosis in human SU-DHL-4 cells assessed as necrotic cells at 0.5 uM incubated for 24 hrs by Annexin V-FITC/PI staining based flow cytometric analysis (reference value: 0.642 %); format: functional
SU-DHL-6 [19] = experiment: Induction of apoptosis in human SU-DHL-6 cells assessed as viable cells at 0.25 uM incubated for 24 hrs by Annexin V-FITC/PI staining based flow cytometric analysis (reference value: 61.2 %); format: functional; details: read-out: Activity
SU-DHL-6 [20] = experiment: Induction of apoptosis in human SU-DHL-6 cells assessed as viable cells at 0.5 uM incubated for 24 hrs by Annexin V-FITC/PI staining based flow cytometric analysis (reference value: 61.2 %); format: functional; details: read-out: Activity
SU-DHL-6 [21] = experiment: Induction of apoptosis in human SU-DHL-6 cells assessed as late apoptotic cells at 0.5 uM incubated for 24 hrs by Annexin V-FITC/PI staining based flow cytometric analysis (reference value: 6.43 %); format: functional
[22] = target: Glycogen synthase kinase-3 beta (Homo sapiens) (UniProt P49841); experiment: Inhibition of GSK-3beta phosphorylation in human SU-DHL-6 cells incubated for 12 hrs by Western blot analysis; format: cell-based; details: dose 0.25-1 µM
SUD4 [23] = experiment: Induction of apoptosis in human SU-DHL-4 cells assessed as decrease in Bcl-2 protein expression at 0.25 to 1 uM incubated for 12 hrs by Western blot analysis; format: functional, cell-based; details: dose 0.25-1 µM
[24] = Cmax in female BALB/c mouse at 1 mg/kg, iv measured after 12 hrs by LC-MS/MS analysis; format: ADME, organism-based; details: in vivo
[25] = Tmax in female BALB/c mouse at 1 mg/kg, iv measured after 12 hrs by LC-MS/MS analysis; format: ADME, organism-based; details: in vivo
[26] = AUC (0 to t) in female BALB/c mouse at 1 mg/kg, iv measured after 12 hrs by LC-MS/MS analysis; format: ADME, organism-based; details: in vivo
[27] = Cmax in female BALB/c mouse at 20 mg/kg, po measured after 24 hrs by LC-MS/MS analysis; format: ADME, organism-based; details: in vivo
[28] = Toxicity in female BALB/c mouse model xenografted with human SU-DHL-6 cells assessed as effect on body weight at 20 mg/kg, po administered once daily via gavage for 15 days; format: organism-based; details: in vivo, 360 h, time 15 day
[29] = Toxicity in female BALB/c mouse model xenografted with human SU-DHL-6 cells assessed as effect on heart histopathology at 20 mg/kg, po administered once daily via gavage for 15 days by H and E staining based analysis; format: organism-based; details: in vivo, 360 h, time 15 day
[30] = Toxicity in female BALB/c mouse model xenografted with human SU-DHL-6 cells assessed as effect on liver histopathology at 20 mg/kg, po administered once daily via gavage for 15 days by H and E staining based analysis; format: organism-based; details: in vivo, 360 h, time 15 day
[31] = Toxicity in female BALB/c mouse model xenografted with human SU-DHL-6 cells assessed as effect on spleen histopathology at 20 mg/kg, po administered once daily via gavage for 15 days by H and E staining based analysis; format: organism-based; details: in vivo, 360 h, time 15 day
SU-DHL-6 [32] = experiment: Antitumor activity against human SU-DHL-6 cells xenografted in female BALB/c mouse model assessed as reduction in phosphorylated AKT level in tumor at 20 mg/kg, po administered once daily via gavage for 15 days by Western blot analysis; format: functional, organism-based; details: time 15.0 day

Chain of Glycogen synthase kinase-3 beta (Homo sapiens) (P49841 whole entry, looked up): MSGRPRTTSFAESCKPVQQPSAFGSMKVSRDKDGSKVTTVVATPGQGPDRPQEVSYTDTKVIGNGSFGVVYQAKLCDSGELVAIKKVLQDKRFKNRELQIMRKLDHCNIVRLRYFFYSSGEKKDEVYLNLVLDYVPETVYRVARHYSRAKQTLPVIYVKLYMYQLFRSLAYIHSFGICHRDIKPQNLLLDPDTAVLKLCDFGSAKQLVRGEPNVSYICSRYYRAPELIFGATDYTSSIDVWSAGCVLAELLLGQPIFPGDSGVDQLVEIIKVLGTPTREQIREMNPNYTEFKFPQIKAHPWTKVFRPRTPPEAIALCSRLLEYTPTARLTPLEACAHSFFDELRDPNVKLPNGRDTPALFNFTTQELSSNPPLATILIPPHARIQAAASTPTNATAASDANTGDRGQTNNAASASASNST
Chain of Bromodomain-containing protein 3 (Q15059 whole entry): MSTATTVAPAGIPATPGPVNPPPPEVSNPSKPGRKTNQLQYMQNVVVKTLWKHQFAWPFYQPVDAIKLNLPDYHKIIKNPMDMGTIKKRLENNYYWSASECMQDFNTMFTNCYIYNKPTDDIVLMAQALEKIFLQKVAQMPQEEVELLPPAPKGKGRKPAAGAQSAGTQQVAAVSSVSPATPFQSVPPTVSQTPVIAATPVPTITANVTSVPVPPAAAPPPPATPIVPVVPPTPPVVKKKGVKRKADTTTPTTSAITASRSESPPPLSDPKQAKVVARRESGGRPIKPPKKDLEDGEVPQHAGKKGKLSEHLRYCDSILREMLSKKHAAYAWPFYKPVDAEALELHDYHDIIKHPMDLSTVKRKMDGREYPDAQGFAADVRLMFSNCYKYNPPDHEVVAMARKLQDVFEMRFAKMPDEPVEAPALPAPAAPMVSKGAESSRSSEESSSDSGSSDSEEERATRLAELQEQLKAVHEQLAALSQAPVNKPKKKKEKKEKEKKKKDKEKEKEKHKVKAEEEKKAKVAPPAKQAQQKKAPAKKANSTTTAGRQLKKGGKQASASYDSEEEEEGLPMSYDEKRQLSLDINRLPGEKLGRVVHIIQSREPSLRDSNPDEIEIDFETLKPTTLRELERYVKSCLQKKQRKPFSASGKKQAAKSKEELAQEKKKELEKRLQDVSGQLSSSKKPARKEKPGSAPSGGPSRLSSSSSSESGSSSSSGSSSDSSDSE
Chain of PI3K p110 beta/p85 alpha (Homo sapiens) (P27986 2-724 limits assumed): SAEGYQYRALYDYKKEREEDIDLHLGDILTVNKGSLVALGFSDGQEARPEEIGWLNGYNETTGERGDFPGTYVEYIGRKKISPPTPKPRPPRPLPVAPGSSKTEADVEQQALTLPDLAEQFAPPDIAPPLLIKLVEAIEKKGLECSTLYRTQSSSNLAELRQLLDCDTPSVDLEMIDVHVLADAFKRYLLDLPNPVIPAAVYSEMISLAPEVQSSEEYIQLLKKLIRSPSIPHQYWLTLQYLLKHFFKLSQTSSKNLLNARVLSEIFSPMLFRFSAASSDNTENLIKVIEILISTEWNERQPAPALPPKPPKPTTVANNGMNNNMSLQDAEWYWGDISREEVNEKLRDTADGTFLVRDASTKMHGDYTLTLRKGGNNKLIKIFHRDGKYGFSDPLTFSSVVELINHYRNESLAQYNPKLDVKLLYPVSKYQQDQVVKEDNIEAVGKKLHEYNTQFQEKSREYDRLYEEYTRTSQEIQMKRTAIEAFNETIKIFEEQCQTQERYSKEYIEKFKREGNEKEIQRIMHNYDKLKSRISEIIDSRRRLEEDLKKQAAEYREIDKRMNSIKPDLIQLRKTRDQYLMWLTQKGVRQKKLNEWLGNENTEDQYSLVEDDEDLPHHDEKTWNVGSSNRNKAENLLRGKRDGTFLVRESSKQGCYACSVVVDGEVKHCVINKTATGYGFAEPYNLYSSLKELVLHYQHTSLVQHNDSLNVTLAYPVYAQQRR
Chain of PI3K p110 beta/p85 alpha (Homo sapiens) (P42338 whole entry partner, canonical isoform): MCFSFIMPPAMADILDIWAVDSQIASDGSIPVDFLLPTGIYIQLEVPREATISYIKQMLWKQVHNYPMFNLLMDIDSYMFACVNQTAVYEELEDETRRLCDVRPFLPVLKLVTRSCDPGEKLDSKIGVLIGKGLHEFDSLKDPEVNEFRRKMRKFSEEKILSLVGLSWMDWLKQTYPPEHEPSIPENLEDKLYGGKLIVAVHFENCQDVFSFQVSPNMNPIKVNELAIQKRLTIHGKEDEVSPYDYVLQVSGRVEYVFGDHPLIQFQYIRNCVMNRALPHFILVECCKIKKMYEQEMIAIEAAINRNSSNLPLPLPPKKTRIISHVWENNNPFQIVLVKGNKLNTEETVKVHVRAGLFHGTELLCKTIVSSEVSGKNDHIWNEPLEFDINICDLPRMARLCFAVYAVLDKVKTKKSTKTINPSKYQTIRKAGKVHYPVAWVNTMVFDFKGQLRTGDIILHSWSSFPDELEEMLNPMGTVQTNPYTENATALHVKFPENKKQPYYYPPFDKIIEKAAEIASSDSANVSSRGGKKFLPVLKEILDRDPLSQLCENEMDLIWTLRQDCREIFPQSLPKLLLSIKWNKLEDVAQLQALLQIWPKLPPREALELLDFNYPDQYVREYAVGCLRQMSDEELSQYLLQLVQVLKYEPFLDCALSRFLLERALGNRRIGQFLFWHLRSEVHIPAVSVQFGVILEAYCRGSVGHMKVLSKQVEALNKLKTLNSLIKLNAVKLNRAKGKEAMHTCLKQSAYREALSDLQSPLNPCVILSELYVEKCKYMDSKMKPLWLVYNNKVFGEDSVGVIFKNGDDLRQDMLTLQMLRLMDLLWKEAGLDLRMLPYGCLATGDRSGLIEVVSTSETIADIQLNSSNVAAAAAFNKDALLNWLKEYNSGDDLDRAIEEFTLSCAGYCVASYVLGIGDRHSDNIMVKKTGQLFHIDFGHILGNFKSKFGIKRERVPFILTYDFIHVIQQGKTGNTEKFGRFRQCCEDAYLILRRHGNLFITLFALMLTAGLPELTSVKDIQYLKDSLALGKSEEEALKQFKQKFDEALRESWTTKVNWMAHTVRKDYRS

SMILES: Cn1cc(-c2nc(N3CCOCC3)c3sc(CN4CCC(C(C)(C)O)CC4)cc3n2)c2cc[nH]c2c1=O
- inhibition [1]: 41.6%
- IC50 [2]: 915 nM
- IC50 [3]: 32 nM
- IC50 [4]: 2 nM
- IC50 [5]: 46 nM
- inhibition [6]: 41%
- inhibition [7]: 17.3%
- inhibition (Homo sapiens): 33.7%
- inhibition [8]: 44.3%
- inhibition [9]: 57.2%
- Activity (SU-DHL-6 [10]): 39.5%
- Activity (HUVEC): Non-toxic
- Activity (SUD4 [11]): Dose-dependent-effect
- Activity (SU-DHL-6 [12]): Dose-dependent-effect
- Activity (SUD4 [13]): 26.2%
- viability at 0.25 µM (SUD4 [14]): 53.7%
- Activity (SUD4 [15]): 1.34%
- Activity (SUD4 [16]): 30.8%
- Activity (SUD4 [17]): 17.3%
- Activity (SUD4 [18]): 2.8%
- viability at 0.25 µM (SU-DHL-6 [19]): 53.7%
- viability at 0.5 µM (SU-DHL-6 [20]): 49.7%
- Activity (SU-DHL-6 [21]): 7.86%
- inhibition [22]: Dose-dependent-effect
- Activity (SUD4 [23]): Active; Modest Effect Observed
- Cmax [24]: 544 ng/mL
- Tmax [25]: 1.98 min
- AUC(0-t) at 12 h [26]: 145 ng·h/mL
- Cmax [27]: 228 ng/mL
- Activity [28]: Non-toxic
- Activity [29]: Non-toxic
- Activity [30]: Non-toxic
- Activity [31]: Non-toxic
- Activity (SU-DHL-6 [32]): Active
